Assay results: article PMC10419174, “WR1065 conjugated to thiol-PEG polymers as novel anticancer prodrugs: broad spectrum efficacy, synergism, and drug resistance reversal” (Frontiers in Oncology, 2023)
Where “and” joins values, the source holds several entries; their conditions need not be identical. Identical values can stand only once. Like-named read-outs stand apart in the source and are kept apart here.

Key:
[1] = system: Mammary gland MDA-MB-231 cells; test: CyQUANT-NF proliferation assay, 48-h drug treatment; assay type: cell-based
Method: Since the BRG prodrugs are composed of WR1065 as one of the major constituents, assays were conducted to determine if factors reported to modulate the activity of amino acid and polyamine plasma membrane transport systems impacted the efficacy of 4SP65 or 1LP65 in selected cancer cell lines. HL60 cells were exposed to 4SP65 with up to 0.5 mM NaCl, MBA-MD-231 cells were tested in the presence and absence of medium supplemented with estradiol plus insulin (in the BulletKit™ for growth supplements for NHMECs), HCC38 cells were exposed to 4SP65 with and without 10 µM insulin added to the growth medium, and multiple cells lines were pretreated for 24 h with 1 mM DFMO prior to starting exposures to 4SP65.
(§1) The percentage of growth inhibition was calculated as follows: […]

[2] = system: NCI-H1437 NSCLC cells; conditions: 48-h treatment, amifostine ND = not definable up to 500 µM
Method: as §1

[3] = system: human cancer cell lines; test: cells
Method: as §1

[4] = system: Ovary SKOV3 cells; test: cells
Method: as §1

[5] = Solubility, storage and stability of 4SP65 and 1LP65; assay type: physicochemical
Method: prepared for use and that was not altered by the solvent used, heating up to 37 °C for up to 3 days, and shaking or rocking for up to 3 days at RT or 4°C. For experiment, an aliquot of drug was first mixed in medium, the solvent was removed and saved, and gel pieces were recovered, dried on a vacuum pump, […]
The difference in the starting weight of drug placed into solvent minus the weight of the residue after drying on a vacuum pump was considered to represent the amount of drug that went into solution. The amount of drug that was dissolved at a given time ranged from 40 to 61%, averaging 50.7 ± 8.1% (SD). The weight of the 4SP65 in solution was then used for diluting the drug to concentrations of 200 or 400 µM in supplemented RPMI or DMEM/F12 medium for routine treatment of cells. The dried residue was not used in the in vitro drug efficacy studies. The formation of a gel in the aqueous solvents tested was unexpected since […]
few free thiols in polymer arms of the PEG scaffold for cross-linking reactions to occur. However, unintended topical entanglements between polymer chains of multi-arm PEG-thiol molecules without disulfide formation have been reported (Tang and Bradley 2014 24860800). Aliquots of 4SP65 dissolved in FBS enriched medium has remained stable for >6 months while remnants of the original viscous polymer have maintained stability without any apparent loss of activity when stored for 60 […]
However, the bulk of the product was dissolved at 40 mM in DMSO and stored in aliquots at −80°C for future use once by further dilution in DMSO and then final dilution in medium for treatment of normal human epithelium and human cancer cell lines at working solutions of 4 mM or 400 µM drug. 1LP65 has maintained stability for six months in frozen aliquots but should be stable in DMSO at −80°C for two to three years based upon recommended storage conditions for cystamine dihydrochloride (Selleck Chemical product information), an analogous 225 Da compound with a disulfide bond and amine groups like 1LP65. […]

[6] = 48-h treatment, amifostine ND = not definable up to 500 µM
[7] = 1LP65: average across 11 cell lines, 48 h
[8] = 15 cell lines for 4SP65, 11 for 1LP65
[9] = average of HCC38, MDA-MB-231, H1975, DU145, PC3
[10] = averages of dose-response metrics across the panel
[11] = averages over 11 cell lines, minimal fold differences

Molecule `COCCOCCOCCOCCOCCOCCSSCCNCCCN.O=C(O)C(F)(F)F.O=C(O)C(F)(F)F` [1LP65, m-PEG6-S-S-WR1065] has a GI50 [1, 6] of 41.8 ± 5.9 µM, an IC50 [1, 6] of 52.4 ± 4.8 µM and an LC99 [1, 6] of 135 ± 6.6 µM. The TGI [1, 6] was 76.4 ± 9.2 µM and 76.4 µM, the CC50 ([1]; 48-h treatment, amifostine ND = not definable up to 500 µM, read-out: LC50 (the source's name)) was 110 ± 4.7 µM and the “Dose reduction value AMF ÷ 1LP65” value ([1]; at GI50) was 5.8 fold. It also gave a GI50 [2] of 66.2 ± 4.2 µM, an IC50 [2] of 74.8 ± 2.1 µM and an LC99 [2] of 234 ± 16 µM. The TGI [2] was 109 ± 17 µM, the CC50 ([2]; read-out: LC50) was 157 ± 14 µM and the “fold greater effect than amifostine” value [3] was 2.1 fold. For the same molecule, the “LC99, All cell lines” value [3, 7] was 126 ± 15.8 µM, the “TGI, All cell lines” value [3, 7] was 69.3 ± 10.3 µM and the “LC99, range for individual cell lines” value [3, 8] was 83.5 to 234 µM. The “TGI, range for individual cell lines” value [3, 8] was 32.7 to 126 µM, the “fold lower concentrations in TP53-mutant compared to TP53 wild-type cell lines” value ([3]; H1437 and TOV21G excluded, across dose-response metrics) was ~ 1.8 fold and the “LC99, TP53 Wild-Type” value ([3]; average of A549, H460, LNCaP) was 161 ± 20.4 µM. The “TGI, TP53 Wild-Type” value ([3]; average of A549, H460, LNCaP) was 101 ± 20.1 µM, the “LC99, TP53 Mutant” value [3, 9] was 95.1 ± 9.9 µM and the “TGI, TP53 Mutant” value [3, 9] was 52.0 ± 7.3 µM. For the same molecule, the “fold more potent than amifostine as a cytostatic agent, average” value [3, 10] was 5.9 fold, the “fold more potent than amifostine as a cytostatic agent, range” value [3, 10] was 5.0- to 6.4 fold and the “Fold difference in drug potency vs amifostine: GI50” value [3, 11] was over 5.0. For the same molecule, the “Fold difference in drug potency vs amifostine: IC50” value [3, 11] was over 6.4, the “Fold difference in drug potency vs amifostine: TGI” value [3, 11] was over 6.3 and the GI50 ([3]; read-out: GI50, All cell lines, 1LP65: average across 11 cell lines, 48 h) was 41.2 ± 5.4 µM. For the same molecule, the GI50 ([3]; read-out: GI50, TP53 Mutant, average of HCC38, MDA-MB-231, H1975, DU145, PC3) was 33.3 ± 3.7 µM, the GI50 ([3]; read-out: GI50, TP53 Wild-Type, average of A549, H460, LNCaP) was 52.7 ± 12.4 µM and the GI50 ([3]; read-out: GI50, range for individual cell lines, 15 cell lines for 4SP65, 11 for 1LP65) was 21.3 to 77.7 µM. It also gave a CC50 ([3]; read-out: LC50, All cell lines, 1LP65: average across 11 cell lines, 48 h) of 94.6 ± 12.8 µM, a CC50 ([3]; read-out: LC50, TP53 Mutant, average of HCC38, MDA-MB-231, H1975, DU145, PC3) of 72.9 ± 9.5 µM and a CC50 ([3]; read-out: LC50, TP53 Wild-Type, average of A549, H460, LNCaP) of 133 ± 19.1 µM. It also gave a CC50 ([3]; read-out: LC50, range for individual cell lines, 15 cell lines for 4SP65, 11 for 1LP65) of 51.3 to 157 µM, a GI50 ([3]; read-out: average GI50) of 30.4 µM and a GI50 [4, 6] of 40.9 ± 0.5 µM. The IC50 [4, 6] was 45.5 ± 2.5 µM, the LC99 [4, 6] was 98.9 ± 8.6 µM and the TGI [4, 6] was 50.3 ± 2.0 µM and 50.3 µM. For the same molecule, the “Dose reduction value AMF ÷ 1LP65” value ([4]; at GI50) was 2.0 fold, the “Dose reduction value AMF ÷ 1LP65” value ([4]; at IC50) was 6.5 fold and the CC50 ([4]; read-out: LC50, 48-h treatment, amifostine ND = not definable up to 500 µM) was 68.8 ± 1.8 µM. The solubility [5] was “soluble 100% DMSO or aqueous solution” and the “time of maintained stability” value ([5]; frozen aliquots in DMSO at −80°C) was “six”.
